{"source": "PubChem BioAssay AID2060614", "about": "(Molecular Pharmacology Branch, DTP, NCI, 2025)", "tested_on": "598228-144-R-J1-PDC complex spheroids, viability", "test": "Anticancer human tumor 598228-144-R-J1-PDC patient-derived serous endometrial adenocarcinoma cell line growth inhibition [CLK]", "details": "for IC50: curve of first compound; for viability, T/C: stronger effect = lower value", "summary_of_the_method": "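Patient-derived tumor cells grown as complex spheroids with HUVEC endothelial cells and mesenchymal stem cells, treated with drug combinations. Concentrations descend in half-log steps from near clinical Cmax, or from 10 microM if Cmax unknown.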", "key": {"[1]": {"details": "second compound 0.0316 µM, first compound 0.0316 µM"}, "[2]": {"details": "second compound 0.0316 µM, first compound 0.1 µM"}, "[3]": {"details": "second compound 0.0316 µM, first compound 0.316 µM"}, "[4]": {"details": "second compound 0.0316 µM, first compound 1 µM"}, "[5]": {"details": "second compound 0.0316 µM, first compound 3.16 µM"}, "[6]": {"details": "second compound 0.0316 µM, first compound 10 µM"}, "[7]": {"details": "second compound 0.1 µM, first compound 0.0316 µM"}, "[8]": {"details": "second compound 0.1 µM, first compound 0.1 µM"}, "[9]": {"details": "second compound 0.1 µM, first compound 0.316 µM"}, "[10]": {"details": "second compound 0.1 µM, first compound 1 µM"}, "[11]": {"details": "second compound 0.1 µM, first compound 3.16 µM"}, "[12]": {"details": "second compound 0.1 µM, first compound 10 µM"}, "[13]": {"details": "second compound 0.316 µM, first compound 0.0316 µM"}, "[14]": {"details": "second compound 0.316 µM, first compound 0.1 µM"}, "[15]": {"details": "second compound 0.316 µM, first compound 0.316 µM"}, "[16]": {"details": "second compound 0.316 µM, first compound 1 µM"}, "[17]": {"details": "second compound 0.316 µM, first compound 3.16 µM"}, "[18]": {"details": "second compound 0.316 µM, first compound 10 µM"}, "[19]": {"details": "second compound 1 µM, first compound 0.0316 µM"}, "[20]": {"details": "second compound 1 µM, first compound 0.1 µM"}, "[21]": {"details": "second compound 1 µM, first compound 0.316 µM"}, "[22]": {"details": "second compound 1 µM, first compound 1 µM"}, "[23]": {"details": "second compound 1 µM, first compound 3.16 µM"}, "[24]": {"details": "second compound 1 µM, first compound 10 µM"}, "[25]": {"details": "second compound 3.16 µM, first compound 0.0316 µM"}, "[26]": {"details": "second compound 3.16 µM, first compound 0.1 µM"}, "[27]": {"details": "second compound 3.16 µM, first compound 0.316 µM"}, "[28]": {"details": "second compound 3.16 µM, first compound 1 µM"}, "[29]": {"details": "second compound 3.16 µM, first compound 3.16 µM"}, "[30]": {"details": "second compound 3.16 µM, first compound 10 µM"}, "[31]": {"details": "second compound 10 µM, first compound 0.0316 µM"}, "[32]": {"details": "second compound 10 µM, first compound 0.1 µM"}, "[33]": {"details": "second compound 10 µM, first compound 0.316 µM"}, "[34]": {"details": "second compound 10 µM, first compound 1 µM"}, "[35]": {"details": "second compound 10 µM, first compound 3.16 µM"}, "[36]": {"details": "second compound 10 µM, first compound 10 µM"}}}
{"molecule": "C#Cc1c(F)ccc2cc(O)cc(-c3ncc4c(N5CC6CCC(C5)N6)nc(OCC56CCCN5CC(F)C6)nc4c3F)c12", "note": "(centres undefined) + CN1CCN(c2cc(C(=O)Nc3cc4cc(-c5cnn(C)c5)ccc4cn3)ccn2)CC1;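 further: spheroids exposed to compounds for seven days before readout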;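 on viability, T/C: 100% = DMSO vehicle control wells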", "values": [{"measurement": "IC50", "setting": "second compound 0.0316 µM", "value": "> 10", "unit": "µM"}, {"measurement": "IC50", "setting": "second compound 0.1 µM", "value": "> 10", "unit": "µM"}, {"measurement": "IC50", "setting": "second compound 0.316 µM", "value": "< 0.0316", "unit": "µM"}, {"measurement": "IC50", "setting": "second compound 1 µM", "value": "< 0.0316", "unit": "µM"}, {"measurement": "IC50", "setting": "second compound 3.16 µM", "value": "< 0.0316", "unit": "µM"}, {"measurement": "IC50", "setting": "second compound 10 µM", "value": "< 0.0316", "unit": "µM"}, {"measurement": "viability, T/C", "setting": "[1]", "value": 132, "unit": "%"}, {"measurement": "viability, T/C", "setting": "[2]", "value": 124, "unit": "%"}, {"measurement": "viability, T/C", "setting": "[3]", "value": 125, "unit": "%"}, {"measurement": "viability, T/C", "setting": "[4]", "value": 135, "unit": "%"}, {"measurement": "viability, T/C", "setting": "[5]", "value": 117, "unit": "%"}, {"measurement": "viability, T/C", "setting": "[6]", "value": 124, "unit": "%"}, {"measurement": "viability, T/C", "setting": "[7]", "value": 133, "unit": "%"}, {"measurement": "viability, T/C", "setting": "[8]", "value": 157, "unit": "%"}, {"measurement": "viability, T/C", "setting": "[9]", "value": 136, "unit": "%"}, {"measurement": "viability, T/C", "setting": "[10]", "value": 124, "unit": "%"}, {"measurement": "viability, T/C", "setting": "[11]", "value": 125, "unit": "%"}, {"measurement": "viability, T/C", "setting": "[12]", "value": 121, "unit": "%"}, {"measurement": "viability, T/C", "setting": "[13]", "value": 17.1, "unit": "%"}, {"measurement": "viability, T/C", "setting": "[14]", "value": 13.9, "unit": "%"}, {"measurement": "viability, T/C", "setting": "[15]", "value": 16, "unit": "%"}, {"measurement": "viability, T/C", "setting": "[16]", "value": 19.5, "unit": "%"}, {"measurement": "viability, T/C", "setting": "[17]", "value": 17.8, "unit": "%"}, {"measurement": "viability, T/C", "setting": "[18]", "value": 16.2, "unit": "%"}, {"measurement": "viability, T/C", "setting": "[19]", "value": 1.68, "unit": "%"}, {"measurement": "viability, T/C", "setting": "[20]", "value": 1.68, "unit": "%"}, {"measurement": "viability, T/C", "setting": "[21]", "value": 2.02, "unit": "%"}, {"measurement": "viability, T/C", "setting": "[22]", "value": 1.73, "unit": "%"}, {"measurement": "viability, T/C", "setting": "[23]", "value": 1.51, "unit": "%"}, {"measurement": "viability, T/C", "setting": "[24]", "value": 1.49, "unit": "%"}, {"measurement": "viability, T/C", "setting": "[25]", "value": 1.98, "unit": "%"}, {"measurement": "viability, T/C", "setting": "[26]", "value": 5.99, "unit": "%"}, {"measurement": "viability, T/C", "setting": "[27]", "value": 2.15, "unit": "%"}, {"measurement": "viability, T/C", "setting": "[28]", "value": 1.76, "unit": "%"}, {"measurement": "viability, T/C", "setting": "[29]", "value": 1.24, "unit": "%"}, {"measurement": "viability, T/C", "setting": "[30]", "value": 3.29, "unit": "%"}, {"measurement": "viability, T/C", "setting": "[31]", "value": 1.05, "unit": "%"}, {"measurement": "viability, T/C", "setting": "[32]", "value": 2.3, "unit": "%"}, {"measurement": "viability, T/C", "setting": "[33]", "value": 0.88, "unit": "%"}, {"measurement": "viability, T/C", "setting": "[34]", "value": 0.94, "unit": "%"}, {"measurement": "viability, T/C", "setting": "[35]", "value": 1, "unit": "%"}, {"measurement": "viability, T/C", "setting": "[36]", "value": 0.39, "unit": "%"}]}
{"molecule": "C=C(F)C(=O)N1CCN(c2nc(OCC3CCCN3C)nc3c2CCN(c2cccc4cccc(Cl)c24)C3)CC1CC#N", "note": "(centres undefined) + CN1CCN(c2cc(C(=O)Nc3cc4cc(-c5cnn(C)c5)ccc4cn3)ccn2)CC1", "values": [{"measurement": "IC50", "setting": "second compound 0.0316 µM", "value": 5.38, "unit": "µM"}, {"measurement": "IC50", "setting": "second compound 0.1 µM", "value": 5.53, "unit": "µM"}, {"measurement": "IC50", "setting": "second compound 0.316 µM", "value": "< 0.0316", "unit": "µM"}, {"measurement": "IC50", "setting": "second compound 1 µM", "value": "< 0.0316", "unit": "µM"}, {"measurement": "IC50", "setting": "second compound 3.16 µM", "value": "< 0.0316", "unit": "µM"}, {"measurement": "IC50", "setting": "second compound 10 µM", "value": "< 0.0316", "unit": "µM"}, {"measurement": "viability, T/C", "setting": "[1]", "value": 120, "unit": "%"}, {"measurement": "viability, T/C", "setting": "[2]", "value": 116, "unit": "%"}, {"measurement": "viability, T/C", "setting": "[3]", "value": 123, "unit": "%"}, {"measurement": "viability, T/C", "setting": "[4]", "value": 122, "unit": "%"}, {"measurement": "viability, T/C", "setting": "[5]", "value": 91.6, "unit": "%"}, {"measurement": "viability, T/C", "setting": "[6]", "value": 1.53, "unit": "%"}, {"measurement": "viability, T/C", "setting": "[7]", "value": 131, "unit": "%"}, {"measurement": "viability, T/C", "setting": "[8]", "value": 123, "unit": "%"}, {"measurement": "viability, T/C", "setting": "[9]", "value": 116, "unit": "%"}, {"measurement": "viability, T/C", "setting": "[10]", "value": 135, "unit": "%"}, {"measurement": "viability, T/C", "setting": "[11]", "value": 95.7, "unit": "%"}, {"measurement": "viability, T/C", "setting": "[12]", "value": 1.5, "unit": "%"}, {"measurement": "viability, T/C", "setting": "[13]", "value": 17.1, "unit": "%"}, {"measurement": "viability, T/C", "setting": "[14]", "value": 20, "unit": "%"}, {"measurement": "viability, T/C", "setting": "[15]", "value": 17.4, "unit": "%"}, {"measurement": "viability, T/C", "setting": "[16]", "value": 18.9, "unit": "%"}, {"measurement": "viability, T/C", "setting": "[17]", "value": 11.9, "unit": "%"}, {"measurement": "viability, T/C", "setting": "[18]", "value": 0.14, "unit": "%"}, {"measurement": "viability, T/C", "setting": "[19]", "value": 2.31, "unit": "%"}, {"measurement": "viability, T/C", "setting": "[20]", "value": 2.11, "unit": "%"}, {"measurement": "viability, T/C", "setting": "[21]", "value": 1.77, "unit": "%"}, {"measurement": "viability, T/C", "setting": "[22]", "value": 1.1, "unit": "%"}, {"measurement": "viability, T/C", "setting": "[23]", "value": 1.88, "unit": "%"}, {"measurement": "viability, T/C", "setting": "[24]", "value": 0.11, "unit": "%"}, {"measurement": "viability, T/C", "setting": "[25]", "value": 1.76, "unit": "%"}, {"measurement": "viability, T/C", "setting": "[26]", "value": 3.04, "unit": "%"}, {"measurement": "viability, T/C", "setting": "[27]", "value": 1.61, "unit": "%"}, {"measurement": "viability, T/C", "setting": "[28]", "value": 2.21, "unit": "%"}, {"measurement": "viability, T/C", "setting": "[29]", "value": 2.11, "unit": "%"}, {"measurement": "viability, T/C", "setting": "[30]", "value": 0.17, "unit": "%"}, {"measurement": "viability, T/C", "setting": "[31]", "value": 1.18, "unit": "%"}, {"measurement": "viability, T/C", "setting": "[32]", "value": 1.1, "unit": "%"}, {"measurement": "viability, T/C", "setting": "[33]", "value": 3.38, "unit": "%"}, {"measurement": "viability, T/C", "setting": "[34]", "value": 0.85, "unit": "%"}, {"measurement": "viability, T/C", "setting": "[35]", "value": 1.73, "unit": "%"}, {"measurement": "viability, T/C", "setting": "[36]", "value": 3.8, "unit": "%"}]}
